# Where a name gives a salt, the structure may show the parent alone.
# Legend:
# [1] = tested on: HBV; experiment: Serum HBsAg by on-site qualitative ELISA in a patient with chronic HBV infection (Example I); format: in vivo, human; conditions: REP 2055 monotherapy, once weekly IV infusion of 400 mg, 29 weeks, one patient
# Protocol: (§1) A pharmaceutically acceptable formulation of the NAP REP 2055 (SEQ ID NO: 2) was administered to a patient with chronic HBV infection by once weekly IV infusion of 400 mg. The serum HBsAg response in this patient was monitored real-time each week using a qualified, on-site qualitative ELISA. This ELISA method is very sensitive to low levels of HBsAg but cannot accurately quantify any significant HBsAg concentration in the blood. […] Therefore, after 29 weeks of REP 2055 monotherapy, this patient received HBV polymerase inhibition therapy in addition to the existing REP 2055 therapy which consisted of 0.5 mg of entecavir taken orally every day.
# This synergistic control of serum HBsAg with combined REP 2055/ETV treatment was maintained over many weeks of treatment.
# [2] = tested on: HBV; experiment: Quantitative serum HBsAg by IMPACT platform in a patient with chronic HBV infection (Example I); format: in vivo, human; conditions: REP 2055 monotherapy; plateau from 10 weeks until 29 weeks
# Description: To confirm the synergistic activity of combination REP 2055/ETV therapy on suppression of HBsAg, serum samples from this patient were re-analyzed using the IMPACT platform to accurately quantitate serum HBsAg levels as described in de Neit et al. (2014, Antiviral Ther., 19: 259-267). […] Importantly, serum HBsAg reduction in this patient reached a plateau where significant serum HBsAg was stably present starting from 10 weeks of REP 2055 treatment until the start of combination REP 2055/ETV therapy at 29 weeks of treatment.
# [3] = tested on: HBV; experiment: Serum viremia (serum HBV DNA) in a patient with chronic HBV infection (Example I); format: in vivo, human; conditions: REP 2055 monotherapy, once weekly IV infusion of 400 mg, one patient
# Protocol: as §1
# [4] = tested on: DHBV; conditions: previously established DHBV infection in vivo; cited from earlier work
# [5] = tested on: DHBV; experiment: Serum DHBV DNA by quantitative PCR in DHBV infected Pekin ducks, combination treatment (Example III); format: in vivo
# Protocol: The antiviral effect of combined treatment with the calcium chelate complex of REP 2139 (REP 2139-Ca) and TDF or REP 2139-Ca and TDF and ETV in DHBV infected Pekin ducks was examined by assessing changes in the levels of serum and liver DHBV DNA during and after treatment by quantitative PCR. Infection of ducks was carried out as described in Example II except that treatment was started one month after infection. Treatment regimens were as follows: • 1) Normal saline given by IP injection 3 times per week for 4 weeks • 2) TDF, given 15 mg/day by oral gavage for 28 days • 3) REP 2139-Ca, given 10 mg/kg by IP injection, 3 times per week for 4 weeks. • 4) REP 2139-Ca and TDF (as dosed above) • 5) REP 2139-Ca and TDF (as dosed above) and ETV given 1 mg/day by oral gavage for 28 days.
# Serum DHBV DNA was assessed pre-treatment (time point A), at day 14 of treatment (time point B), at the end of treatment (time point C), and one and two months after treatment was stopped (follow-up, time point D and E).
Compound,serum HBsAg (qualitative ELISA) [1],"initial reduction of serum HBsAg (quantitative, IMPACT platform) [2] [log]",drop in serum viremia (serum HBV DNA) [3] [log],cccDNA copy number [4],cccDNA transcriptional activity [4],serum duck HBsAg (DHBsAg) [4],"serum DHBV DNA during treatment ([5]; 28 days treatment, day 14 (halfway) and end of treatment, REP 2139-Ca 10 mg/kg IP 3 times per week, TDF 15 mg/day, ETV 1 mg/day oral gavage)",serum DHBV DNA during follow-up ([5]; one and two months after treatment was stopped)
"(dAdC)20 (ACACACACACACACACACACACACACACACACACACACAC; DNA, all phosphorothioate, methylation of C not given here) [REP 2055, Each linkage is phosphorothioated]",no detectable reduction,~2,~1,reduction in cccDNA copy number,transcriptional inactivation of cccDNA,clearance,,
"CC(C)OC(=O)OCOP(=O)(CO[C@H](C)Cn1cnc2c(N)ncnc21)OCOC(=O)OC(C)C [TDF, tenofovir disoproxil fumarate]",,,,,,,reduced in all ducks but control was not achieved in all ducks until the end of treatment,rebounded in all ducks

# Reference: patent US9603865B2, “Methods for the treatment of hepatitis B and hepatitis D virus infections” (priority 2014, dated 2017)
